≈ marks a conversion by molar mass, not a printed value. Where “and” joins values, the source holds several entries; their conditions need not be identical. Equal entries are not always repeated. Entries after “also recorded” stand apart in the source; their conditions may differ. Where two headings read alike, the source gives them in different places.
Assays:
lymphoid leukemia L1210 [1] = experiment: Intraperitoneal (IP) lymphoid leukemia L1210 transplanted mouse tumor test; format: in vivo, murine; details: for OD (optimum dose) / ILS (percentage increase in life span) / animals alive per 6 test animals on day of termination: Table VIII; for animals alive per 6 test animals on day of termination / survivors (number in parentheses) IP L1210: day 30; for ILS (%) IP L1210 / survivors (number in parentheses) IP L1210: Table XI; for ILS (%) IP L1210: outstanding activity; for survivors (number in parentheses) IP L1210: per 6 test animals; for maximum ILS: IP L1210; for antitumor activity: IP L1210, tetraaminobenzoquinone series (Table VIII); for cures: survivors on day 30, L1210
Source text: ^(a) Day 1-9 treatment schedule (9 injections)
^(b) Day 1,5,9 treatment schedule (3 injections)
^(c) Day 1 only treatment schedule (1 injection)
^(f) Percentage increase in life span of treated animals [(treated
survival .div. control survival) × 100%] - 100%

[2] = test system: P388 lymphocytic leukemia; experiment: Intraperitoneal (IP) lymphocytic leukemia P388 transplanted mouse tumor test; format: in vivo, murine; details: for OD (optimum dose) / ILS (percentage increase in life span) / animals alive per 6 test animals on day of termination: Table IX; for OD (optimum dose): IP P388, QD1-9; for ILS (percentage increase in life span) / animals alive per 6 test animals on day of termination: IP P388, QD1-9, at OD; for animals alive per 6 test animals on day of termination / survivors (number in parentheses) P388: day 30; for survivors (number in parentheses) P388: Table XI, per 6 test animals; for antitumor activity: IP P388; for cures: P388, 30 day survivors, QD1-9
Source text: (§1) ^b Ip tumor implantation, ip QD1-9 treatment schedule.
(§2) The L1210, P388 and B16 test systems described in Table II utilize intraperitoneal (IP) tumor implantation and IP drug treatment while the Lewis lung system employs subcutaneous tumor implantation and IP treatment.
(§3) Aqueous saline solution (0.9%) was used as the drug vehicle. Normally, five doses were employed per experiment with the top dose chosen to produce toxicity. The lower doses were 50% of each preceeding dose.
(§4) Consistent with NCI antitumor test protocols, intraperitoneal (IP) administration of the drug was employed with all five tumor systems investigated. Tumor implantation was IP in the systems designated IP leukemia L1210 and P388 as well as B16 melanoma.

B16 melanocarcinoma = experiment: Intraperitoneal B16 melanocarcinoma transplanted mouse tumor test; format: in vivo, murine; details: for ILS (percentage increase in life span) / OD (optimum dose): Table IX; for ILS (percentage increase in life span): B16, QD1-9, at OD; for antitumor activity: B16 melanoma; for OD (optimum dose): B16, QD1-9; for ILS (%) B16: Table XI, outstanding activity
Source text: as §1, §2, §3, §4

lymphoid leukemia L1210 [3] = experiment: Intracerebral (IC) lymphoid leukemia L1210 test; format: in vivo, murine; details: for antitumor activity: IC L1210; for OD (optimum dose) / ILS (percentage increase in life span): Table X; for OD (optimum dose): IC L1210, QD1-9; for ILS (percentage increase in life span): IC L1210, QD1-9, at OD; for ILS (%) IC L1210: Table XI, outstanding activity
Source text: ^b Ic tumor implantation, ip QD1-9 treatment schedule.
The L1210, P388 and B16 test systems described in Table II utilize intraperitoneal (IP) tumor implantation and IP drug treatment while the Lewis lung system employs subcutaneous tumor implantation and IP treatment. All three CNS tumor models (Table III) use intracerebral (IC) tumor implantation and IP treatment.
Consistent with NCI antitumor test protocols, intraperitoneal (IP) administration of the drug was employed with all five tumor systems investigated. Tumor implantation was IP in the systems designated IP leukemia L1210 and P388 as well as B16 melanoma. Intracerebral (IC) tumor implantation was utilized in the IC L1210 and ependymoblastoma tumor systems.

ependymoblastoma = experiment: Intracerebral (IC) ependymoblastoma (EM) brain tumor test; format: in vivo, murine; details: for antitumor activity: IC ependymoblastoma (EM); for OD (optimum dose) / ILS (percentage increase in life span) / animals alive per 6 test animals on day of termination: Table X, IC ependymoblastoma; for OD (optimum dose): QD1-5; for ILS (percentage increase in life span) / animals alive per 6 test animals on day of termination: QD1-5, at OD
Source text: ^c Ic tumor implantation, ip QD1-5 treatment schedule.
^g Number of animals alive per six test animals on day of termination
of experiment (day 99 for expt 133 and day 60 for expt 136 and 144).
A third IC transplanted mouse tumor model, the ependymoblastoma system, was also studied. This system requires intracerebral implantation of a solid tumor fragment while the IC L1210 and IC P388 systems utilize IC inoculated ascites tumor fluid. All three use IP drug treatment however. […] Cures (survivors from the group of six mice on the last day of the experiment) are indicated. Experiments 136 and 144 were terminated on day 60. Since the number of cures was about the same, the differences in T/C values in these two experiments reflect differences in the life span of the two different sets of control animals. Experiment 133 was terminated on day 99 with a resulting higher activity value.
The hydrophilic dihydroxypropylamino compound (No. 39), which was curative in the IP L1210 and P388 leukemia systems, was active but gave a large spread in ILS values (53-186%). […] Again, its hydrophilic character may present transport problems in this IC tumor system.

[4] = Room temperature water solubility; format: physicochemical
Method: In the following examples, all melting points are uncorrected and were recorded on a Thomas-Hoover capillary melting point apparatus. Elemental analyses were performed by NIAMDD, NIH, Bethesda, Maryland. Fluoranil, ethyleneimine and 2l -methylethyleneimine were obtained commerically. […] New compounds were identified by nmr and ir spectroscopy. In the tetraamino derivatives, the methylene protons of the aziridine rings usually occurred as a singlet at δ2.0-2.2 in CDCl3 or DMSO-d6. This absorption appeared at δ2.40 (CDCl3) for compound 11. Carbonyl absorption frequencies (nujol mull) occurred in the range 1620-1640 cm^-1 for the tetraamino compounds. Satisfactory elemental analyses (+0.4% of calculated values) are indicated by elemental symbols in Table VII. Room temperature water solubilities were determined by the incremental addition (pipet) of water to a weighed amount of compound with shaking. The solubility values in Table VII must be considered as approximate.

[5] = test system: IP ascites tumor systems (leukemia L1210 and P388); experiment: IP ascites tumor systems (leukemia L1210 and P388); format: in vivo, murine
Source text: The criterion for minimum activity, %ILS, is defined here as follows: Intraperitoneal and intracerebral leukemia L1210 and intraperitoneal leukemia P388, 25%; intraperitoneal B16 melanoma and intracerebral ependymoblastoma, 40%. Consistent with NCI antitumor test protocols, intraperitoneal (IP) administration of the drug was employed with all five tumor systems investigated. Tumor implantation was IP in the systems designated IP leukemia L1210 and P388 as well as B16 melanoma. Intracerebral (IC) tumor implantation was utilized in the IC L1210 and ependymoblastoma tumor systems.

[6] = Octanol/H2O partition coefficient (log P); format: physicochemical; details: Table VII, octanol/H2O; for logP: octanol/water
Source text: ^(b) Octanol/H2 O values determined by C. Hansch and M. Yamakawa

[7] = IP L1210, Day 1 only (1 injection)
[8] = water, Table VII, room temperature, approximate, read-out: Approx. H2O Sol.
[9] = IP L1210, Q4D(1,5,9) (3 injections)

NC1=C(N2CC2)C(=O)C(N)=C(N2CC2)C1=O [Compound 33, 2,5-Dizairidinyl-3,6-diamino-1,4-benzoquinone]
OD (optimum dose) (lymphoid leukemia L1210 [1]; [7]): 1.0 mg/kg/injection and 0.5 mg/kg/injection
ILS (percentage increase in life span) (lymphoid leukemia L1210 [1]; IP L1210, Q4D(1,5,9), at OD): 161% and 124%
animals alive per 6 test animals on day of termination (lymphoid leukemia L1210 [1]; IP L1210, Q4D(1,5,9), at OD): 3 and 2
OD (optimum dose) (lymphoid leukemia L1210 [1]; IP L1210, QD1-9 (9 injections)): 0.4 mg/kg/injection and 0.3 mg/kg/injection
ILS (percentage increase in life span) (lymphoid leukemia L1210 [1]; IP L1210, QD1-9, at OD): 115% and 100%
ILS (%) IP L1210 (lymphoid leukemia L1210 [1]): 161%
survivors (number in parentheses) IP L1210 (lymphoid leukemia L1210 [1]): 3
OD (optimum dose) [2]: 0.2 mg/kg/injection
ILS (percentage increase in life span) [2]: 171% and 156%
animals alive per 6 test animals on day of termination [2]: 1
survivors (number in parentheses) P388 [2]: 1
ILS (percentage increase in life span) (B16 melanocarcinoma): 31% and 19%
antitumor activity (lymphoid leukemia L1210 [3]): most active; also recorded: significant activity
OD (optimum dose) (lymphoid leukemia L1210 [3]): 0.3 mg/kg/injection
ILS (percentage increase in life span) (lymphoid leukemia L1210 [3]): 60% and 59%
ILS (%) IC L1210 (lymphoid leukemia L1210 [3]): 60%
antitumor activity (ependymoblastoma): among the most active materials
OD (optimum dose) (ependymoblastoma): 0.2 mg/kg/injection
ILS (percentage increase in life span) (ependymoblastoma): 215% and 177%
animals alive per 6 test animals on day of termination (ependymoblastoma; day 60): 4 and 6
survivors (number in parentheses) EM (ependymoblastoma; Table XI, per 6 test animals, day 60): 6
solubility [4]: insoluble in any solvent; also recorded: exceptionally insoluble
solubility [4, 8]: < 0.1 mg/mL
antitumor activity [5]: active

O=C1C(NCCO)=C(N2CC2)C(=O)C(NCCO)=C1N1CC1 [Compound 38]
maximum ILS (lymphoid leukemia L1210 [1]): > 200%
antitumor activity (lymphoid leukemia L1210 [1]): Excellent activity
OD (optimum dose) (lymphoid leukemia L1210 [1]; [7]): 1.5 mg/kg/injection
ILS (percentage increase in life span) (lymphoid leukemia L1210 [1]; IP L1210, Day 1 only, at OD): 175% and 119%
animals alive per 6 test animals on day of termination (lymphoid leukemia L1210 [1]; IP L1210, Day 1 only, at OD): 5 and 3
OD (optimum dose) (lymphoid leukemia L1210 [1]; [9]): 0.7 mg/kg/injection
ILS (percentage increase in life span) (lymphoid leukemia L1210 [1]; IP L1210, Q4D(1,5,9), at OD): 131% and 70%
OD (optimum dose) (lymphoid leukemia L1210 [1]; IP L1210, QD1-9 (9 injections)): 0.7 mg/kg/injection
ILS (percentage increase in life span) (lymphoid leukemia L1210 [1]; IP L1210, QD1-9, at OD): 205% and 134%
animals alive per 6 test animals on day of termination (lymphoid leukemia L1210 [1]; IP L1210, QD1-9, at OD): 2 and 3
ILS (%) IP L1210 (lymphoid leukemia L1210 [1]): 205%
survivors (number in parentheses) IP L1210 (lymphoid leukemia L1210 [1]): 2
cures (lymphoid leukemia L1210 [1]): produced cures
cures (lymphoid leukemia L1210 [1]; listed as hydroxyethylamino): Multiple cures
antitumor activity [2]: very active
cures [2]: multiple cures
OD (optimum dose) [2]: 0.4 mg/kg/injection
ILS (percentage increase in life span) [2]: 175% and 160%
animals alive per 6 test animals on day of termination [2]: 3 and 2
survivors (number in parentheses) P388 [2]: 3
antitumor activity (B16 melanocarcinoma): active
OD (optimum dose) (B16 melanocarcinoma): 0.4 mg/kg/injection
ILS (percentage increase in life span) (B16 melanocarcinoma): 61% and 51%
ILS (%) B16 (B16 melanocarcinoma): 61%
antitumor activity (lymphoid leukemia L1210 [3]): marginal
OD (optimum dose) (lymphoid leukemia L1210 [3]): 0.75 mg/kg/injection
ILS (percentage increase in life span) (lymphoid leukemia L1210 [3]): 57% and 48%
ILS (%) IC L1210 (lymphoid leukemia L1210 [3]): 57%
OD (optimum dose) (ependymoblastoma): 1.5 mg/kg/injection
ILS (percentage increase in life span) (ependymoblastoma): 83% and 70%
solubility [4, 8]: 2 mg/mL (≈ 6.49 mM)
logP [6]: -1.48
antitumor activity [5]: most active; also recorded: superior

O=C1C(NCC(O)CO)=C(N2CC2)C(=O)C(NCC(O)CO)=C1N1CC1 (stereo not shown) [Compound 39]
maximum ILS (lymphoid leukemia L1210 [1]): > 200%
antitumor activity (lymphoid leukemia L1210 [1]): Excellent activity
OD (optimum dose) (lymphoid leukemia L1210 [1]; [7]): 4.0 mg/kg/injection and 2.0 mg/kg/injection
animals alive per 6 test animals on day of termination (lymphoid leukemia L1210 [1]; IP L1210, Day 1 only, at OD): 4
OD (optimum dose) (lymphoid leukemia L1210 [1]; [9]): 4.0 mg/kg/injection and 8.0 mg/kg/injection
OD (optimum dose) (lymphoid leukemia L1210 [1]; IP L1210, QD1-9 (9 injections)): 4.0 mg/kg/injection and 2.0 mg/kg/injection
ILS (%) IP L1210 (lymphoid leukemia L1210 [1]): 206%
survivors (number in parentheses) IP L1210 (lymphoid leukemia L1210 [1]): 5
cures (lymphoid leukemia L1210 [1]): produced cures
cures (lymphoid leukemia L1210 [1]; listed as dihydroxypropylamino): Multiple cures
antitumor activity [2]: very active
cures [2]: multiple cures
OD (optimum dose) [2]: 4.0 mg/kg/injection
ILS (percentage increase in life span) [2]: 143% and 141%
animals alive per 6 test animals on day of termination [2]: 6 and 4
survivors (number in parentheses) P388 [2]: 6
antitumor activity (B16 melanocarcinoma): active
OD (optimum dose) (B16 melanocarcinoma): 4.0 mg/kg/injection and 6.0 mg/kg/injection
ILS (percentage increase in life span) (B16 melanocarcinoma): 50% and 42%
ILS (%) B16 (B16 melanocarcinoma): 50%
antitumor activity (lymphoid leukemia L1210 [3]): marginal
OD (optimum dose) (lymphoid leukemia L1210 [3]): 4.0 mg/kg/injection
ILS (percentage increase in life span) (lymphoid leukemia L1210 [3]): 41% and 43%
ILS values (spread) (ependymoblastoma; EM, repeat tests): 53-186%
antitumor activity (ependymoblastoma): moderate to good EM activity
ILS (percentage increase in life span) (ependymoblastoma): 99% and 53%
animals alive per 6 test animals on day of termination (ependymoblastoma; day 60): 1
solubility [4, 8]: 30 mg/mL (≈ 81.4 mM)
log P [6]: -1.97
antitumor activity [5]: curative; also recorded: probably the most active compound

CN(CCO)C1=C(N2CC2)C(=O)C(N(C)CCO)=C(N2CC2)C1=O [Compound 42]
OD (optimum dose) (lymphoid leukemia L1210 [1]; [9]): 0.4 mg/kg/injection and 0.2 mg/kg/injection
OD (optimum dose) (lymphoid leukemia L1210 [1]; IP L1210, QD1-9 (9 injections)): 1.5 mg/kg/injection
animals alive per 6 test animals on day of termination (lymphoid leukemia L1210 [1]; IP L1210, QD1-9, at OD): 1
ILS (%) IP L1210 (lymphoid leukemia L1210 [1]): 114%
survivors (number in parentheses) IP L1210 (lymphoid leukemia L1210 [1]): 1
OD (optimum dose) [2]: 1.6 mg/kg/injection and 0.8 mg/kg/injection
ILS (percentage increase in life span) [2]: 162% and 145%
antitumor activity (B16 melanocarcinoma): approached minimal reproducible activity
OD (optimum dose) (B16 melanocarcinoma): 0.8 mg/kg/injection
ILS (percentage increase in life span) (B16 melanocarcinoma): 47% and 31%
OD (optimum dose) (lymphoid leukemia L1210 [3]): 4.0 mg/kg/injection and 2.0 mg/kg/injection
ILS (percentage increase in life span) (lymphoid leukemia L1210 [3]): 45% and 32%
OD (optimum dose) (ependymoblastoma): 0.4 mg/kg/injection and 0.2 mg/kg/injection
ILS (percentage increase in life span) (ependymoblastoma): 84% and 69%
solubility [4, 8]: 60 mg/mL (≈ 178 mM)
logP [6]: -0.38

Source: US4146622A, “Aziridinyl quinone anti-transplanted tumor agents” (priority 1977, dated 1979)
